Results as given in ChEMBL document CHEMBL1124295, “Synthesis and oral antiallergic activity of carboxylic acids derived from imidazo[2,1-c][1,4]benzoxazines, imidazo[1,2-a]quinolines, imidazo[1,2-a]quinoxalines, imidazo[1,2-a]quinoxalinones, pyrrolo[1,2-a]quinoxalinones, pyrrolo[2,3-a]quinoxalinones, and imidazo[2,1-b]benzothiazoles” (1988).
Activity calls are given as the source filed them. No cut-off for these calls is given here.

Columns and labels:
[1] = system: Rattus norvegicus; experiment: Inhibition of the IgE-mediated passive cutaneous anaphylaxis (PCA) reaction in rat after intravenous administration; Range 0.047-0.108; type: functional
[2] = system: Rattus norvegicus; experiment: Inhibition of the IgE-mediated passive cutaneous anaphylaxis (PCA) reaction in rat after oral administration; NA means inactive; type: functional, organism-based
[3] = system: Rattus norvegicus; experiment: Inhibition of the IgE-mediated passive cutaneous anaphylaxis (PCA) reaction in rat after oral administration; Range 0.65-6.05; type: functional
[4] = system: Rattus norvegicus; experiment: Inhibition of the IgE-mediated passive cutaneous anaphylaxis (PCA) reaction in rat after oral administration; Range 0.07-22.7; type: functional
[5] = system: Rattus norvegicus; experiment: Inhibition of the IgE-mediated passive cutaneous anaphylaxis (PCA) reaction in rat after intravenous administration; Range 0.007-0.049; type: functional
[6] = system: Rattus norvegicus; experiment: Inhibition of the IgE-mediated passive cutaneous anaphylaxis (PCA) reaction in rat after oral administration; Range 0.29-6.49; type: functional
[7] = system: Rattus norvegicus; experiment: Inhibition of the IgE-mediated passive cutaneous anaphylaxis (PCA) reaction in rat after oral administration; Range 1.88-2.85; type: functional
[8] = system: Rattus norvegicus; experiment: Inhibition of the IgE-mediated passive cutaneous anaphylaxis (PCA) reaction in rat after intravenous administration; Range 0.025-0.11; type: functional
[9] = system: Rattus norvegicus; experiment: Inhibition of the IgE-mediated passive cutaneous anaphylaxis (PCA) reaction in rat after oral administration; Range 0.51-7.81; type: functional
[10] = system: Rattus norvegicus; experiment: Inhibition of the IgE-mediated passive cutaneous anaphylaxis (PCA) reaction in rat after oral administration; Range 0.37-0.65; type: functional
[11] = system: Rattus norvegicus; experiment: Inhibition of the IgE-mediated passive cutaneous anaphylaxis (PCA) reaction in rat after intravenous administration; Range 0.104; type: functional
[12] = system: Rattus norvegicus; experiment: Inhibition of the IgE-mediated passive cutaneous anaphylaxis (PCA) reaction in rat after oral administration; Inactive at 20 mg/kg; type: functional, organism-based; design: dose 20 mg/kg
[13] = system: Rattus norvegicus; experiment: Inhibition of the IgE-mediated passive cutaneous anaphylaxis (PCA) reaction in rat after intravenous administration; Range 0.014-0.029; type: functional
[14] = system: Rattus norvegicus; experiment: Inhibition of the IgE-mediated passive cutaneous anaphylaxis (PCA) reaction in rat after intravenous administration; Range 0.22-0.59; type: functional
[15] = system: Rattus norvegicus; experiment: Inhibition of the IgE-mediated passive cutaneous anaphylaxis (PCA) reaction in rat after intravenous administration; Range 1.31-4.63; type: functional
[16] = system: Rattus norvegicus; experiment: Inhibition of the IgE-mediated passive cutaneous anaphylaxis (PCA) reaction in rat after intravenous administration; Range 0.39-0.96; type: functional
[17] = system: Rattus norvegicus; experiment: Inhibition of the IgE-mediated passive cutaneous anaphylaxis (PCA) reaction in rat after oral administration at concentration of 10 mg/Kg of compound; type: functional
[18] = system: Rattus norvegicus; experiment: Inhibition of the IgE-mediated passive cutaneous anaphylaxis (PCA) reaction in rat after oral administration of 10 mg/Kg of compound; type: functional
[19] = system: Rattus norvegicus; experiment: Inhibition of the IgE-mediated passive cutaneous anaphylaxis (PCA) reaction in rat after oral administration; Range 0.07-0.03; type: functional
[20] = system: Rattus norvegicus; experiment: Inhibition of the IgE-mediated passive cutaneous anaphylaxis (PCA) reaction in rat after intravenous administration; Range 0.004-0.006; type: functional
[21] = system: Rattus norvegicus; experiment: Inhibition of the IgE-mediated passive cutaneous anaphylaxis (PCA) reaction in rat after oral administration; Range 2.89-3.99; type: functional
[22] = system: Rattus norvegicus; experiment: Inhibition of the IgE-mediated passive cutaneous anaphylaxis (PCA) reaction in rat after intravenous administration; Range 0.1-0.44; type: functional
[23] = system: Rattus norvegicus; experiment: Inhibition of the IgE-mediated passive cutaneous anaphylaxis (PCA) reaction in rat after intravenous administration; Range 0.0103-0.0214; type: functional
[24] = system: Rattus norvegicus; experiment: Inhibition of the IgE-mediated passive cutaneous anaphylaxis (PCA) reaction in rat after oral administration; Range 0.21-7.6; type: functional
[25] = system: Rattus norvegicus; experiment: Inhibition of the IgE-mediated passive cutaneous anaphylaxis (PCA) reaction in rat after oral administration; Range 0.20-0.83; type: functional
[26] = system: Rattus norvegicus; experiment: Inhibition of the IgE-mediated passive cutaneous anaphylaxis (PCA) reaction in rat after intravenous administration; Range 0.20-0.5; type: functional
[27] = system: Rattus norvegicus; experiment: Inhibition of the IgE-mediated passive cutaneous anaphylaxis (PCA) reaction in rat after intravenous administration; Range 0.34-0.45; type: functional
[28] = system: Rattus norvegicus; experiment: Inhibition of the IgE-mediated passive cutaneous anaphylaxis (PCA) reaction in rat after oral administration; Range 5.21-7.35; type: functional
[29] = system: Rattus norvegicus; experiment: Inhibition of the IgE-mediated passive cutaneous anaphylaxis (PCA) reaction in rat after intravenous administration; Range 0.06-0.22; type: functional
[30] = system: Rattus norvegicus; experiment: Inhibition of the IgE-mediated passive cutaneous anaphylaxis (PCA) reaction in rat after intravenous administration; Range 0.12-1.07; type: functional
[31] = system: Rattus norvegicus; experiment: Inhibition of the IgE-mediated passive cutaneous anaphylaxis (PCA) reaction in rat after oral administration; NA means inactive at 1 and 10 mg/Kg; type: functional, organism-based
[32] = system: Rattus norvegicus; experiment: Inhibition of the IgE-mediated passive cutaneous anaphylaxis (PCA) reaction in rat after intravenous administration; Range 0.31-0.45; type: functional
[33] = system: Rattus norvegicus; experiment: Inhibition of the IgE-mediated passive cutaneous anaphylaxis (PCA) reaction in rat after oral administration; Range 0.031-0.15; type: functional
[34] = system: Rattus norvegicus; experiment: Inhibition of the IgE-mediated passive cutaneous anaphylaxis (PCA) reaction in rat after intravenous administration; Range 0.052-0.43; type: functional
[35] = system: Rattus norvegicus; experiment: Inhibition of the IgE-mediated passive cutaneous anaphylaxis (PCA) reaction in rat after oral administration; Range 0.182-1.56; type: functional
[36] = system: Rattus norvegicus; experiment: Inhibition of the IgE-mediated passive cutaneous anaphylaxis (PCA) reaction in rat after intravenous administration; Range 0.08-0.37; type: functional
[37] = system: Rattus norvegicus; experiment: Inhibition of the IgE-mediated passive cutaneous anaphylaxis (PCA) reaction in rat after intravenous administration; Range 0.08-1.71; type: functional
[38] = system: Rattus norvegicus; experiment: Inhibition of the IgE-mediated passive cutaneous anaphylaxis (PCA) reaction in rat after oral administration; Range 2.71-7.46; type: functional
[39] = system: Rattus norvegicus; experiment: Inhibition of the IgE-mediated passive cutaneous anaphylaxis (PCA) reaction in rat after intravenous administration; Range 1.73-30.03; type: functional
[40] = system: Rattus norvegicus; experiment: Inhibition of the IgE-mediated passive cutaneous anaphylaxis (PCA) reaction in rat after oral administration; Range 0.06-0.199; type: functional
[41] = system: Rattus norvegicus; experiment: Inhibition of the IgE-mediated passive cutaneous anaphylaxis (PCA) reaction in rat after intravenous administration; Range 0.013-0.023; type: functional
[42] = system: Rattus norvegicus; experiment: Inhibition of the IgE-mediated passive cutaneous anaphylaxis (PCA) reaction in rat after intravenous administration; Range 0.043-0.12; type: functional
[43] = system: Rattus norvegicus; experiment: Inhibition of the IgE-mediated passive cutaneous anaphylaxis (PCA) reaction in rat after intravenous administration; Range 0.066-0.453; type: functional
[44] = system: Rattus norvegicus; experiment: Inhibition of the IgE-mediated passive cutaneous anaphylaxis (PCA) reaction in rat after oral administration; Range 0.021-0.089; type: functional
[45] = system: Rattus norvegicus; experiment: Inhibition of the IgE-mediated passive cutaneous anaphylaxis (PCA) reaction in rat after intravenous administration; Range 0.43-0.74; type: functional
[46] = system: Rattus norvegicus; experiment: Inhibition of the IgE-mediated passive cutaneous anaphylaxis (PCA) reaction in rat after intravenous administration; Range 2.22-3.63; type: functional
[47] = system: Rattus norvegicus; experiment: Inhibition of the IgE-mediated passive cutaneous anaphylaxis (PCA) reaction in rat after oral administration; Range 2.47-3.45; type: functional
[48] = system: Rattus norvegicus; experiment: Inhibition of the IgE-mediated passive cutaneous anaphylaxis (PCA) reaction in rat after oral administration; Range 2.51-4.1; type: functional
[49] = system: Rattus norvegicus; experiment: Inhibition of the IgE-mediated passive cutaneous anaphylaxis (PCA) reaction in rat after intravenous administration; Range 2.22-5.31; type: functional
[50] = system: Rattus norvegicus; experiment: Inhibition of the IgE-mediated passive cutaneous anaphylaxis (PCA) reaction in rat after intravenous administration; Range 1.07-3.93; type: functional
[51] = system: Rattus norvegicus; experiment: Inhibition of the IgE-mediated passive cutaneous anaphylaxis (PCA) reaction in rat after oral administration; Range 12.3-33.8; type: functional
[52] = system: Rattus norvegicus; experiment: Inhibition of the IgE-mediated passive cutaneous anaphylaxis (PCA) reaction in rat after intravenous administration; Range 0.072-0.41; type: functional

## CC(=O)Nc1ccc2c(c1)-n1cc(C(=O)O)nc1CO2
[1]
  ED50: 0.073 mg/kg
[2]
  ED50: inactive

## CC1(C)OCC(COC(=O)c2cn3c(ccc4ccccc43)n2)O1 (stereo not drawn)
[3]
  ED50: 1.7 mg/kg

## Clc1ccc2c(Cl)cc3nc(-c4nn[nH]n4)cn3c2c1
[4]
  ED50: 0.5 mg/kg
[5]
  ED50: 0.016 mg/kg

## OCc1cn2c(n1)COc1ccccc1-2
[6]
  ED50: 2.73 mg/kg

## CCn1c(=O)c2cc(C=O)cn2c2ccccc21
[7]
  ED50: 2.53 mg/kg

## CS(=O)(=O)c1cc2nc(C(=O)O)cn2c2ccccc12
[8]
  ED50: 0.047 mg/kg
[9]
  ED50: 1.64 mg/kg

## CCOC(=O)C(=O)Nc1ccc2c(c1)-n1cc(C(=O)OC)nc1CO2
[10]
  ED50: 0.5 mg/kg

## O=C(O)c1ncn2c1c(O)nc1ccccc12
[11]
  ED50: 0.104 mg/kg
[12]
  ED50: inactive

## CCCn1c(=O)c2cc(C(=O)O)nn2c2ccccc21
[13]
  ED50: 0.023 mg/kg

## C[S+](=N)([O-])c1cc2nc(C(=O)O)cn2c2ccccc12 (stereo not drawn)
[14]
  ED50: 0.35 mg/kg

## O=C(O)c1cn2c(n1)COc1ccc([N+](=O)[O-])cc1-2
[15]
  ED50: 2.22 mg/kg

## COc1ccc2c(c1)sc1nc(C(=O)O)cn12
[16]
  ED50: 0.62 mg/kg

## O/N=C\c1cn2c(n1)COc1ccccc1-2
[17]
  Inhibition: 42%

## O=C(OCC(O)CO)c1cn2c(ccc3ccccc32)n1 (stereo not drawn)
[18]
  Inhibition: 47%

## CCCCCCc1cc([S+](C)(=N)[O-])cc2c(=O)c3cc(C(=O)O)ccc3oc12.NC(CO)(CO)CO (stereo not drawn)
[19]
  ED50: 0.19 mg/kg
[20]
  ED50: 5 µg/kg

## COC(=O)c1cn2c(n1)COc1ccc(NC(C)=O)cc1-2
[21]
  ED50: 3.48 mg/kg

## Cn1c(=O)c2cc(C(=O)O)nn2c2ccccc21
[22]
  ED50: 0.19 mg/kg

## O=C(O)C(=O)Nc1ccc2c(c1)-n1cc(C(=O)O)nc1CO2
[23]
  ED50: 0.0172 mg/kg

## O=Cc1cn2c(cc(Cl)c3ccc(Cl)cc32)n1
[24]
  ED50: 0.5 mg/kg

## O=C(Nc1nn[nH]n1)c1cn2c(ccc3ccccc32)n1
[25]
  ED50: 0.54 mg/kg
[26]
  ED50: 0.31 mg/kg

## O=C(O)c1cn2c(n1)CCc1ccccc1-2
[27]
  ED50: 0.39 mg/kg
[28]
  ED50: 6.14 mg/kg

## CCn1c(=O)c2cc(C(=O)O)nn2c2ccccc21
[29]
  ED50: 0.11 mg/kg

## O=C(Nc1nn[nH]n1)c1cn2c(n1)COc1ccccc1-2
[30]
  ED50: 0.33 mg/kg
[31]
  ED50: inactive

## Cc1nc(C(=O)O)c2c(O)nc3ccccc3n12
[32]
  ED50: 0.37 mg/kg

## O=Cc1cn2c(cnc3ccccc32)n1
[33]
  ED50: 0.073 mg/kg
[34]
  ED50: 0.137 mg/kg

## CCn1c(=O)c2cc(-c3nn[nH]n3)cn2c2ccccc21
[35]
  ED50: 0.44 mg/kg

## CCc1ccc2ccc3nc(C(=O)O)cn3c2c1
[36]
  ED50: 0.16 mg/kg

## O=C(O)c1cc2c(O)nc3ccccc3n2n1
[37]
  ED50: 0.33 mg/kg

## O=Cc1cn2c(n1)COc1ccccc1-2
[38]
  ED50: 4.27 mg/kg
[39]
  ED50: 4.79 mg/kg

## CCCCn1c(=O)c2cc(C(=O)O)cn2c2ccc(Cl)cc21
[40]
  ED50: 0.114 mg/kg
[41]
  ED50: 0.019 mg/kg

## C[S+]([O-])c1ccc2ccc3nc(C(=O)O)cn3c2c1 (stereo not drawn)
[42]
  ED50: 0.076 mg/kg

## OCc1cn2c(cnc3ccccc32)n1
[43]
  ED50: 0.156 mg/kg
[44]
  ED50: 0.061 mg/kg

## Nc1nnnn1C(=O)c1cn2c(n1)COc1ccccc1-2
[31]
  ED50: inactive
[45]
  ED50: 0.58 mg/kg

## O=C(O)c1cn2c(n1)COc1ccccc1-2
[46]
  ED50: 2.89 mg/kg
[47]
  ED50: 3.2 mg/kg

## O=C(OCCCl)c1cn2c(ccc3ccccc32)n1
[48]
  ED50: 3.5 mg/kg

## COc1ccc2ccc3nc(CN)cn3c2c1.Cl.Cl
[49]
  ED50: 3.39 mg/kg

## O=C(O)c1cn2c(n1)N=S(=O)(c1ccccc1)c1ccccc1-2 (stereo not drawn)
[50]
  ED50: 1.92 mg/kg

## O=C(O)c1cc2c(=O)n(-c3ccccc3)c3ccccc3n2c1
[51]
  ED50: 18.9 mg/kg

## COc1cccc2sc3nc(C(=O)O)cn3c12
[52]
  ED50: 0.16 mg/kg
